{"source": "paper PMC3909264", "about": "“A Novel Acylaminoimidazole Derivative, WN1316, Alleviates Disease Progression via Suppression of Glial Inflammation in ALS Mouse Model” (PLoS ONE, 2014)", "key": {"[1]": {"test": "Pharmacokinetics of WN-compounds in mice (brain and serum concentration, HPLC)", "format": "in vivo, mouse (C57BL/6N)", "conditions": "for Cmax: C57BL/6N mouse, oral 50 mg/kg body weight", "method": "Wild type mice at 8 weeks (male, C57BL/6N) were used for the analysis of CPN-9, WN1303R, WN1312, WN1315 and WN1316 pharmacokinetics. CPN-9 was suspended in 0.5% carboxymethyl cellulose (CMC)-Na (carmellose sodium, Maruishi Pharmaceutical Co., Ltd.), while WN1303R, WN1312 and WN1316 were dissolved in Milli-Q purified water (MQ water) and WN1315 was dissolved in 0.25 N HCl. CPN-9 (100 mg/kg body weight) and the four WN-compounds (50 mg/kg body weight) were injected intragastrically (i.g.). After 15 min, 30 min, 1 h, 2 h, 4 h, 6 h, and 8 h, blood was collected from heart of each mouse anesthetized with 2% isoflurane by inhalation or 4% halothane in a mixture of N2O/O2 (70∶30). Mice were thereafter perfused transcardially with physiological saline containing 10% heparin under anesthesia, and the whole brain was removed. Each blood sample was centrifuged at 1,000×g for 10 min at 4°C, and the serum fraction was collected. The brain was frozen in liquid nitrogen, and was cryopreserved until use.\nWe mixed serum with deproteinization buffer (0.05 M H2SO4, 2.5 M K2CO3, and […]), and collected the organic layer after centrifugation at 1,500×g for 10 min. The organic layer was mixed with 0.05 M H2SO4, and then, after centrifugation at 1,500×g for 10 min, the water layer was collected. After the addition of methanol, each serum derived sample was subjected to HPLC.\nMouse whole brain was homogenized with acetonitrile and left at −80°C for 10 min. The supernatant was collected after centrifugation at 10,000×g for 10 min at 4°C and was dried under vacuum. The dried sample was re-dissolved in methanol and mixed with two volumes of 10 mM phosphate buffer (pH7.0), after which the supernatant was collected by centrifugation at 10,000×g for 10 min at 4°C and then left at −80°C for 10 min. To further remove debris, the supernatant was filtered (0.45 µm filter), centrifuged (at 10,000×g for 10 min at 4°C), filtered (0.22 µm filter) and finally centrifuged again. Each sample solution from brain was subjected to HPLC.\nThe concentrations of CPN-9 and WN1316 in the serum and brain samples were determined by HPLC on a CAPCELL PAK C18 column (SHISEIDO) with 50% acetonitrile (CPN-9), 40% acetonitrile (WN1316) or 45% acetonitrile (WN1303R, WN1312, and WN1315) in 10 mM phosphate buffer (pH 7.0)."}, "[2]": {"system": "ALS(SOD1^G93A) mice", "test": "Post-onset oral administration in ALS(SOD1^G93A) mice: motor function, body weight, survival", "format": "in vivo", "method": "In addition, congenic ALS(SOD1^G93A) transgenic mice on a B6 background were also generated by crossing B6SJL-TgN(SOD1-G93A)1Gur [ALS(SOD1^G93A)] males (Jackson Laboratory) to B6 females for more than 11 generations. Both congenic ALS mice were used throughout this study.\nThe lines were maintained as hemizygotes by mating ALS(SOD1^H46R) and ALS(SOD1^G93A) males with B6 females. Offspring were genotyped by PCR using genomic DNA from tail tissue. Mice were housed at 23°C with a 12 h light/dark cycle, in which water and food was available ad libitum. The condition of each animal was monitored weekly initially and then daily after disease onset. The lifespan was determined by the days from disease onset to the endpoint, in which mouse lost active and/or spontaneous movement. All animal experimental procedures were approved by the Institutional Animal Care and Use Committee at Tokai University.\nWN1316 was dissolved in MQ water, and diluted with physiological saline. ALS(SOD1^H46R) transgenic mice were given WN1316 via gastric tube (CAT.No.4202, Fuchigami) at a dose of either 1 µg, 10 µg or 100 µg/5 ml/kg body weight. ALS(SOD1^G93A) transgenic mice were given 10 µg/kg WN1316. Animals simultaneously treated with physiological saline (vehicle group, 5 ml/kg) were used as controls.\nTo determine the onset of motor dysfunction in ALS(SOD1^H46R) transgenic mice, we adopted a balance beam test as previously described in detail. To determine the onset of motor dysfunction in ALS(SOD1^G93A) transgenic mice, we adopted both balance beam and grip strength tests. Grip strength test was assessed using a traction meter (BrainScience Idea Co., Ltd.). Each mouse was given three trials, and the highest limb strength score was recorded. For ALS(SOD1^G93A) transgenic mice, grip strength tests were started at 11 weeks of age and performed twice a week until an over 20% reduction compared with the initial limb strength score at 11 weeks of age was observed. Finally, a grade 3 in the balance beam test and over 20% reduction of limb strength score were defined as the sign of the disease onset in ALS(SOD1^G93A) transgenic mice.\nThe gross phenotypes were measured blindly. The body weight of each mouse was measured weekly initially and then daily after disease onset. Mice were assessed for gross behavior every week from 12 weeks of age in ALS(SOD1^H46R) mice and from 11 weeks of age in ALS(SOD1^G93A) mice until the endpoint. In particular, hind limb movement and rearing behavior of each animal were monitored weekly from 12 weeks of age until the end stage. The days from the disease onset to the endpoint were counted individually as the survival interval.\nWe assessed motor performance and coordination, and balance in the mice by the balance-beam test, vertical pole test, and footprint analysis as previously described in detail and grip strength test as described above. In brief, the balance-beam test was performed every day after the onset until mice were unable to stay on the bar. […] The highest vertical ascending distance was scored. […]\nTo evaluate the spontaneous motor activities in mice, we conducted cage activity and rearing performance tests by using SUPERMEX with infrared ray sensor monitor (Muromachi Kikai). Both cage activity and rearing performance were monitored for 2 consecutive nights starting at 18 weeks and 21 weeks of age in ALS(SOD1^H46R) mice and at 13 weeks, 17 weeks and 21 weeks of age in ALS(SOD1^G93A) mice. […]"}}, "note": "Structures can show the parent of a compound that is named as a salt. Where two headings read alike, the source gives them in different places.", "data": [{"compound": "Cc1cc(C)c(N(C)CC(=O)Nc2nc(-c3ccccn3)c[nH]2)c(C)c1", "note": "[WN1316, 2-[mesityl(methyl)amino]-N-[4-(pyridin-2-yl)-1H-imidazol-2-yl] acetamide trihydrochloride]", "values": [{"measurement": "AUC0–8: Brain", "setting": "[1]; C57BL/6N mice, intragastric, 50 mg/kg, n = 4, mean ± SD", "result": "38.9±5.7", "unit": "µg⋅h/g"}, {"measurement": "brain AUC0–8 relative to the level observed with CPN-9", "setting": "[1]; WN1316 50 mg/kg vs CPN-9 100 mg/kg", "result": "about 39 fold"}, {"measurement": "Cmax", "setting": "[1]; male, brain, read-out: Cmax in brain", "result": 42.1, "unit": "µM"}, {"measurement": "Kp", "setting": "[1]; male, mouse, brain / serum, oral 50 mg/kg, C57BL/6N, read-out: brain AUC0–8 relative to serum levels", "result": "~4"}, {"measurement": "AUC(0-t)", "setting": "[1]; male, mouse, serum, po, C57BL/6N mice, intragastric, 50 mg/kg, n = 4, mean ± SD, read-out: AUC0–8: Serum", "result": "13600 ± 700", "unit": "ng·h/mL"}, {"measurement": "Cmax", "setting": "[1]; male, serum, read-out: Cmax in blood", "result": 9.78, "unit": "µM"}, {"measurement": "BBB permeability (in words)", "setting": "[1]; mouse, in vivo", "result": "prominent BBB permeability"}, {"measurement": "clearance in both brain and serum", "setting": "[1]; oral 50 mg/kg, C57BL/6N", "result": 8, "unit": "h"}, {"measurement": "impact including weight gain or loss", "setting": "[2]; 10 µg/kg/day p.o.", "result": "No impact"}, {"measurement": "post-onset life span (survival interval)", "setting": "[2]; 10 µg/kg/day p.o., n = 8, mean ± SD (vehicle 57.9±6.0)", "result": "66.1 ± 12.0", "unit": "days"}, {"measurement": "balance beam test: duration from onset to the day the mouse was unable to stay on the bar", "setting": "[2]; 10 µg/kg/day p.o., n = 8, mean ± SEM (vehicle 39.3±2.1)", "result": "47.1 ± 3.0", "unit": "days"}, {"measurement": "prolongation of post-onset survival", "setting": "[2]; 10 µg/kg/day p.o., vs vehicle", "result": 14, "unit": "%"}, {"measurement": "motor performance by footprint analysis", "setting": "[2]; 10 µg/kg/day, 20 weeks of age (late symptomatic stage), vs vehicle", "result": "sustained motor performance"}]}]}
